Reference: patent publication US11208412B2 (DAEGU-GYEONGBUK MEDICAL INNOVATION FOUNDATION, priority 2017, dated 2021)

How the values were obtained:
[1] = target: T1, recombinant LRRK2 kinase (Homo sapiens, UniProt Q5S007); experiment: LRRK2 kinase inhibition (Kinase-Glo luminescence); format: biochemical; conditions: IC50 grade; 25 μmol/L ATP, LRRKtide, 30° C. 2 hours; read-out: Enzyme activity LRRK2
T1 construct: purchased Signal Chem, Richmond, BC, Canada
Description: Upon completion of the reaction, an equal amount of Kinase-Glo (Promega, Madison, Wis.) solution was added thereto, followed by reaction for 40 minutes. A detection solution was added thereto, followed by further reaction at room temperature for 30 minutes. Then, IC50 of kinase was calculated by measuring the amount of luciferase using a microplate ELISA reader (Bio-Tek).

[2] = target: T2, kinases of the scanMAX Kinase assay panel (Homo sapiens, UniProt O15111); experiment: Kinase selectivity, DiscoverX scanMAX Kinase assay panel (% control); format: binding; conditions: IKK-alpha; 1 uM
T2 construct: purchased DiscoverX Co. (contract measurement) scanMAX Kinase assay panel
T2 sequence (O15111 1-745): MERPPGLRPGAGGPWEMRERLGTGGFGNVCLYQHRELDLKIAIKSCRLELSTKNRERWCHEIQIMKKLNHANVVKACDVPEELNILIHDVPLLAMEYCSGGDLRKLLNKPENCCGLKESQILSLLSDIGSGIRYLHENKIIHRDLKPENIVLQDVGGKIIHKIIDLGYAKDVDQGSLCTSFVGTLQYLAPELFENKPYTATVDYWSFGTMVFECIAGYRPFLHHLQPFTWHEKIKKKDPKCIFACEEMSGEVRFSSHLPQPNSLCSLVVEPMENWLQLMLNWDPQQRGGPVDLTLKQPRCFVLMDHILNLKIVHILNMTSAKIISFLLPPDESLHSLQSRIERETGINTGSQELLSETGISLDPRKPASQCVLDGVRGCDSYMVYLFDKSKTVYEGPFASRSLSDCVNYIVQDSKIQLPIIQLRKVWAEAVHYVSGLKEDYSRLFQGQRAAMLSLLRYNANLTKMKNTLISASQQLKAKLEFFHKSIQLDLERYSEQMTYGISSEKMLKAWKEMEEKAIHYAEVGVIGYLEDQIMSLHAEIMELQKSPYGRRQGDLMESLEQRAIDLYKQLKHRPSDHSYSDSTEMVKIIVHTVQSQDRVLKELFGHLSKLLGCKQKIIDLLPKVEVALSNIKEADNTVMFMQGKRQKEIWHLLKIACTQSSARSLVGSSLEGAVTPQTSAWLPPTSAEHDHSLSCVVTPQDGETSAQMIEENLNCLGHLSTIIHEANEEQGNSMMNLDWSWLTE
Description: (§1) The following experiment was performed to evaluate the activity of the compounds of the present invention to inhibit many enzymes.
(§2) Particularly, the compounds of Examples 8, 64 and 104 were selected among all of those compounds of the invention. DiscoverX Co. was asked to measure the enzyme (kinase) selectivity, and the experiment was performed using scanMAX™ Kinase assay panel.
(§3) Wherein, the concentration of the drug treated to each enzyme was 1 uM in DMSO and the control percentage (% control) was determined by the following Equation 1. (example compound−positive control)/(negative control−positive control)×100 [Equation 1]
(§4) Herein, the positive control indicates the compound showing the % control of 0%, and the negative control indicates DMSO showing the % control of 100%. The enzyme selectivity in the present invention is defined as follows: When the % control for each enzyme is less than 35% (<35%), it is judged that the compound has the activity to the corresponding enzyme.

[3] = target: T3, kinases of the scanMAX Kinase assay panel (Homo sapiens, UniProt O43293); experiment: as above; format: binding; conditions: DAPK3; 1 uM
T3 construct: purchased DiscoverX Co. (contract measurement) scanMAX Kinase assay panel
Description: as §1, §2, §3, §4

[4] = target: T4, kinases of the scanMAX Kinase assay panel (Homo sapiens, UniProt P27361); experiment: as above; format: binding; conditions: ERK1; 1 uM
T4 construct: purchased DiscoverX Co. (contract measurement) scanMAX Kinase assay panel
Description: as §1, §2, §3, §4

[5] = target: T5, kinases of the scanMAX Kinase assay panel (Homo sapiens, UniProt P53350); experiment: as above; format: binding; conditions: PLK1; 1 uM
T5 construct: purchased DiscoverX Co. (contract measurement) scanMAX Kinase assay panel
Description: as §1, §2, §3, §4

[6] = target: T6, kinases of the scanMAX Kinase assay panel (Homo sapiens, UniProt Q52WX2); experiment: as above; format: binding; conditions: kinase SBK1; 1 uM in DMSO
T6 construct: purchased DiscoverX Co. (contract measurement) scanMAX Kinase assay panel
Description: as §1, §2, §3, §4

[7] = target: T7, kinases of the scanMAX Kinase assay panel (Homo sapiens, UniProt Q8TF76); experiment: as above; format: binding; conditions: HASPIN; 1 uM
T7 construct: purchased DiscoverX Co. (contract measurement) scanMAX Kinase assay panel
T7 sequence (Q8TF76 1-798): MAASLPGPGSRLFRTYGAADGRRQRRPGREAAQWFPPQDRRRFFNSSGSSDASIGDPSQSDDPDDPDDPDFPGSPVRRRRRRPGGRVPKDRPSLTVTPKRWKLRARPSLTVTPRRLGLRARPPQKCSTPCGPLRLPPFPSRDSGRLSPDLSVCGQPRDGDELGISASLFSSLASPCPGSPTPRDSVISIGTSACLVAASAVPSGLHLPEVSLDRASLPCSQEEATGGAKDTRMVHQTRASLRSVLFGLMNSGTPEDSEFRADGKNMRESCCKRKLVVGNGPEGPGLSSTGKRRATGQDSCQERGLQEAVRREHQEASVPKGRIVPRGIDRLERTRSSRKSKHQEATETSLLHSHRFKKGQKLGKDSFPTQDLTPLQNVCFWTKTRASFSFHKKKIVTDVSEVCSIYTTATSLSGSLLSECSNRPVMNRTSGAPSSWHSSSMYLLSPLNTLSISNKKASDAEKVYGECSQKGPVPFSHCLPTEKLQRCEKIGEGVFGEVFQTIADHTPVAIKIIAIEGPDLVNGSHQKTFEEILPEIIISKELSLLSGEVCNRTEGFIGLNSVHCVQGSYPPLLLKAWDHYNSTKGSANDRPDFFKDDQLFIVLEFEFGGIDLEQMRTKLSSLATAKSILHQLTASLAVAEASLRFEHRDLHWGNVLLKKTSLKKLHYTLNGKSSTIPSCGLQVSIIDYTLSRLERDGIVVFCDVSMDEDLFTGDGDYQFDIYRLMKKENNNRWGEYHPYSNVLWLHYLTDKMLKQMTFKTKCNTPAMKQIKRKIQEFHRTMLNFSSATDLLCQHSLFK
Description: as §1, §2, §3, §4

[8] = target: T8, kinases of the scanMAX Kinase assay panel (Homo sapiens, UniProt Q9P286); experiment: as above; format: binding; conditions: PAK7; 1 uM
T8 construct: purchased DiscoverX Co. (contract measurement) scanMAX Kinase assay panel
Description: as §1, §2, §3, §4

[9] = target: T9, kinases of the scanMAX Kinase assay panel (Homo sapiens, UniProt Q9Y2H9); experiment: as above; format: binding; conditions: MAST1; 1 uM
T9 construct: purchased DiscoverX Co. (contract measurement) scanMAX Kinase assay panel
Description: as §1, §2, §3, §4

[10] = test system: kinases of the scanMAX Kinase assay panel; experiment: as above; format: binding; conditions: 1 uM
Description: as §1, §2, §3, §4

T3 sequence (O43293 whole entry): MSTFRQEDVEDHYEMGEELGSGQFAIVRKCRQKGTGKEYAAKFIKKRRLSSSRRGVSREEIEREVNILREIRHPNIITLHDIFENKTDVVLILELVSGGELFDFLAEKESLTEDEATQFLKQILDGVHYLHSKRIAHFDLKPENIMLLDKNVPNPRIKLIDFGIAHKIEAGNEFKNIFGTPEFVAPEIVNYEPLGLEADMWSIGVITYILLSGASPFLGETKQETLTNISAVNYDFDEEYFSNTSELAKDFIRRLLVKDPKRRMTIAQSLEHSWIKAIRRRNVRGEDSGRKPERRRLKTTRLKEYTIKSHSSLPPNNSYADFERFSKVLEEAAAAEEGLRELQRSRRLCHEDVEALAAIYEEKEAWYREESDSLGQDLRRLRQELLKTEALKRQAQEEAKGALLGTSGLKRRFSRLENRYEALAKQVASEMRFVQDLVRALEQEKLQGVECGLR
T9 sequence (Q9Y2H9 whole entry): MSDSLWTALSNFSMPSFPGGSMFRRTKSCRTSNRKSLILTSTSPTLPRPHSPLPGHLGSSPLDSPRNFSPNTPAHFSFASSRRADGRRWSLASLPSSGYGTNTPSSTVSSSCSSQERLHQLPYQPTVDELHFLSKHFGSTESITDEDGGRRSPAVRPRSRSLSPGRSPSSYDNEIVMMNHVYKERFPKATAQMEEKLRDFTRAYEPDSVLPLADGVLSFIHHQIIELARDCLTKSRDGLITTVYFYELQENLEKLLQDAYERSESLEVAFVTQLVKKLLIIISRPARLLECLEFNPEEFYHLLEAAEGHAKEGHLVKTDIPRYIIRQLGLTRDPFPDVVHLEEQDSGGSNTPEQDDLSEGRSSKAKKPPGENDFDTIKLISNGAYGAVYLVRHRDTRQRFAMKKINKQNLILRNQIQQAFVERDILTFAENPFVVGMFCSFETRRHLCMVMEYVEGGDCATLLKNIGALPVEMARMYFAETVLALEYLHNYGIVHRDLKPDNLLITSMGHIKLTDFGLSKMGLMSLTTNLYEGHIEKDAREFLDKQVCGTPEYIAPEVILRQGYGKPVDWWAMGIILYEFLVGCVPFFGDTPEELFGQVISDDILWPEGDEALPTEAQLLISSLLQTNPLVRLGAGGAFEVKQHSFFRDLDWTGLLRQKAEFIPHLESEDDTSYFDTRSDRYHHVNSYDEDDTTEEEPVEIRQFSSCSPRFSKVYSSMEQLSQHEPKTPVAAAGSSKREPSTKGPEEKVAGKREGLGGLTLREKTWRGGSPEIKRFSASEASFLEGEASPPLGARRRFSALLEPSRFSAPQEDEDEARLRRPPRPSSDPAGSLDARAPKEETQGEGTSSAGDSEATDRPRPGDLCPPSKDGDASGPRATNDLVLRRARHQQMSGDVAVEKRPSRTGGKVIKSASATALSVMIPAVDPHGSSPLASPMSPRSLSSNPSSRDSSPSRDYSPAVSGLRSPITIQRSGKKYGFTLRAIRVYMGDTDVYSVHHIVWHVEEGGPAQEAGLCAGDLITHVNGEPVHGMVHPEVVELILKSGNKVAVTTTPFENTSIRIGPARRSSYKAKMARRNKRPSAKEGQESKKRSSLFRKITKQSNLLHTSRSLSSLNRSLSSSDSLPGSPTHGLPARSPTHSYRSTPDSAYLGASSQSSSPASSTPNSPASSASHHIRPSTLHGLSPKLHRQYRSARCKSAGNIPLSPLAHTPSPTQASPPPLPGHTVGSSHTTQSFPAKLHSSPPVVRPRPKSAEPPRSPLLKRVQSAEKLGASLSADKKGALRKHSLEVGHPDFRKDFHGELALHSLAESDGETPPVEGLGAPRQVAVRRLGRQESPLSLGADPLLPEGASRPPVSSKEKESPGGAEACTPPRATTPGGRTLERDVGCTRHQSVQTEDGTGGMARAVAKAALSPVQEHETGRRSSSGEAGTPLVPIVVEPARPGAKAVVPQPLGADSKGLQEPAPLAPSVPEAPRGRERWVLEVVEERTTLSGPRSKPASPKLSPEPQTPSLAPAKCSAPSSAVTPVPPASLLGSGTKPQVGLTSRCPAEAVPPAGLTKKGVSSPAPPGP
T6 sequence (Q52WX2 whole entry): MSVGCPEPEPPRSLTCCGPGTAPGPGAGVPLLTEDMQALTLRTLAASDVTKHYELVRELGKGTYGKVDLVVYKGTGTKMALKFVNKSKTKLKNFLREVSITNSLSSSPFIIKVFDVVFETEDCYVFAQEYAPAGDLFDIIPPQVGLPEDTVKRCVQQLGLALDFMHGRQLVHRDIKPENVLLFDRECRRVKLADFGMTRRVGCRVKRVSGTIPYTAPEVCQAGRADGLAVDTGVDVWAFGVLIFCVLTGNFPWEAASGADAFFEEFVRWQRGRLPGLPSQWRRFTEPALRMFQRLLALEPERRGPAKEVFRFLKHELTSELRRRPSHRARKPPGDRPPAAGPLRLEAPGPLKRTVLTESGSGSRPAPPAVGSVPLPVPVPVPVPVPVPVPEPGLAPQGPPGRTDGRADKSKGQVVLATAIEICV
T8 sequence (Q9P286 whole entry): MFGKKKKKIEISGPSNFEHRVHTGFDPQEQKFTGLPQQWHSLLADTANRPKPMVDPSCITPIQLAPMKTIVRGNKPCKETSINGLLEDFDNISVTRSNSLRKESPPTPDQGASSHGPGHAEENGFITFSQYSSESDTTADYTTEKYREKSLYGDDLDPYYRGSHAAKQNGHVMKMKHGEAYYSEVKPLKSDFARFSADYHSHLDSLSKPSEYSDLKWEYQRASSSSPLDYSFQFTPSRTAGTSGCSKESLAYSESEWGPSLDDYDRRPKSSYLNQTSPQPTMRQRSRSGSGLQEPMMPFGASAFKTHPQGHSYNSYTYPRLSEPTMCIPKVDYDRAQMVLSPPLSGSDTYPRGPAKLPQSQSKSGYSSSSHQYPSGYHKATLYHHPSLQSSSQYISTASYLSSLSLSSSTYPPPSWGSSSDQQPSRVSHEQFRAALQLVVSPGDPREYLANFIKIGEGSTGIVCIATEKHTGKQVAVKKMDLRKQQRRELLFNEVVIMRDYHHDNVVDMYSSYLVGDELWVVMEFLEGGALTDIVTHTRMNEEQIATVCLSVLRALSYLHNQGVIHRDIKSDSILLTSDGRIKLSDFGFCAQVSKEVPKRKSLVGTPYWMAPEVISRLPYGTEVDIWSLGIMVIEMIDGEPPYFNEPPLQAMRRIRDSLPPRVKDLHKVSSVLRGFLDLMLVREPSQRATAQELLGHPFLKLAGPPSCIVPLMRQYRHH
T4 sequence (P27361 whole entry): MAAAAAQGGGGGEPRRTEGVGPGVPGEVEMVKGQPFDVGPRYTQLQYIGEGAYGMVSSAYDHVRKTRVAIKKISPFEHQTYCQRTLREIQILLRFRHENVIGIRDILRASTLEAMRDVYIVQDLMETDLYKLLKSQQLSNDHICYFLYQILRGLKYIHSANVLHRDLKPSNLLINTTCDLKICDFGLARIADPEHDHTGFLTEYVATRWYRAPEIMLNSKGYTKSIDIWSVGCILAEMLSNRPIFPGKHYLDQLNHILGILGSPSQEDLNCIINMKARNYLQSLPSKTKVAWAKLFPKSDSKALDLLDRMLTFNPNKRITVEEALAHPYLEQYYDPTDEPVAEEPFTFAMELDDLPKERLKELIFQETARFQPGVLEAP
T5 sequence (P53350 whole entry): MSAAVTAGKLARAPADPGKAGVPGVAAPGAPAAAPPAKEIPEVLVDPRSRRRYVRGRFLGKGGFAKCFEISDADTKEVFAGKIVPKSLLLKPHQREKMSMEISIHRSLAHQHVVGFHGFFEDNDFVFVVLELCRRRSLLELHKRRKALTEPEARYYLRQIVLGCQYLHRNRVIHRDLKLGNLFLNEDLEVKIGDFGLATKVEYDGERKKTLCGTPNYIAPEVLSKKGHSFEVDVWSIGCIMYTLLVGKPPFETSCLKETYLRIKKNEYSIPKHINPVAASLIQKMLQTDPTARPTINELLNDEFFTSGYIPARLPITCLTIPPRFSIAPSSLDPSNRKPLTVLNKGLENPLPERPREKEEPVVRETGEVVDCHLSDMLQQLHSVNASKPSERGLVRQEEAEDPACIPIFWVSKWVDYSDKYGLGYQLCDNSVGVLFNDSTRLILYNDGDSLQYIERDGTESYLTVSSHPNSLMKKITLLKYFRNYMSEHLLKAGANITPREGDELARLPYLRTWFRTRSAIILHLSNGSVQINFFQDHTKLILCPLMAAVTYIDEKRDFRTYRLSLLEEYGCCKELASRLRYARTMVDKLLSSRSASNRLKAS

Compound	IC50 [1]	remaining binding at 1 µM [2]	remaining binding at 1 µM [3]	remaining binding at 1 µM [4]	remaining binding at 1 µM [5]	remaining binding at 1 µM [6]	remaining binding at 1 µM [7]	remaining binding at 1 µM [8]	remaining binding at 1 µM [9]	% control ([10]; EGFR(L747-E749de1, A750P))	% control ([10]; EGFR(L747-S752de1, P753S))	% control ([10]; EGFR(L747-T751de1, Sins))	% control ([10]; EPHAl)	% control ([10]; FLT3(ITD))	% control ([10]; FLT3(ITD, D835V))	% control ([10]; FLT3(ITD, F691L))
CCNc1nc(Nc2ccc(C(=O)N3CCC(N4CCOCC4)CC3)cc2OC)nc2[nH]cc(C(F)(F)F)c12 [Example 104, (4-((4-(ethylamino)-5-(trifluoromethyl)-7H-pyrrolo[2,3-d]pyrimidine-2-yl)amino)-3-methoxyphenyl)(4-morpholinopiperidine-1-yl)methanone]	< 10 nM	93%	56%	100%	65%	100%	100%	85%	72%	99%	98%	100%	100%	21%	15%	79%
CNc1nc(Nc2ccc(C(=O)N3CCOCC3)cc2OC)nc2[nH]cc(C#N)c12 [Example 1, 2-((2-methoxy-4-(morpholine-4-carbonyl)phenyl)amino)-4-(methylamino)-7H-pyrrolo[2,3-d]pyrimidine-5-carbonitrile]	< 10 nM	57%	12%	88%	14%	72%	63%	91%	100%	98.0%	100.0%	61.0%	93.0%	83.0%	51.0%	47.0%
CC1(Nc2nc(Nc3cnn([C@H]4CCN(C5COC5)C[C@@H]4F)c3Cl)nc3[nH]cc(C#N)c23)CC1 [Example 52, 2-((5-chloro-1-((3S,4S)-3-fluoro-1-(oxetane-3-yl)piperidine-4-yl)-1H-pyrazole-4-yl)amino)((1-methylcyclopropyl)amino)-7H-pyrrolo[2,3-d]pyrimidine-5-carbonitrile]	< 10 nM	3.4%	8.4%	42%	100%	21%	100%	0.25%	74%	38%	49%	68%	58%	0%	0%	0.7%
